What follows are compounds tested on overactive bladder induced by acetic acid (assay: Confirmation test of elongation action of micturition interval of overactive bladder induced by acetic acid). Conditions: Rattus norvegicus, iv; 1 mg/kg/2 ml via the femoral vein; interval before administration = 100%.
Assay type: in vivo, female SD rats
Protocol: Urethane (sigma) was dissolved into pure water by 25% w/v, and female SD rats were anesthetized with 1.25 g/kg urethane by subcutaneous administration. Cannulae were placed in femoral vein and bladder, and the bladder cannula was connected to both a syringe pump and a pressure transducer. Detrusor overactivity was induced by intravesical infusion of 0.25% acetic acid in saline at a rate of 3.6 mL/h, and intravesical pressure was monitored via pressure transducer concurrently. Test compounds were dissolved into a mixture of dimethylacetamide and saline (20:80), and were administered via the femoral vein. When an average of the three micturition interval before administration was taken as 100%, an average of the three micturition interval after administration was calculated as Elongation of micturition interval (%) Dose and results are shown in tables 46 and 47.

Question: How did the response vs control in vivo at 1 mg/kg turn out when `NC(=O)[C@@H](c1ccccc1)N(C(=O)c1ccccc1)[C@@H]1CCc2ccc(C3CC3)cc21` [Example 2-5LP, N-[(R)-carbamoylphenylmethyl]-N-[(R)-6-cyclopropylindan-1-yl]benzamide] was run?
Answer: 177%

Same assay, conditions: Rattus norvegicus, iv; 1 mg/kg/ml via the femoral vein; interval before administration = 100%

Question: With `NC(=O)[C@@H](c1cccnc1)N(C(=O)c1ccccc1O)[C@@H]1CCc2c(F)cc(Cl)cc21` [Example 19-1LP, N-[(R)-carbamoylpyridin-3-ylmethyl]-N-[(R)-6-chloro-4-fluoroindan-1-yl]-2-hydroxybenzamide] as the compound, how does the response vs control in vivo at 1 mg/kg read?
Answer: 178%

Each compound was assayed against TRPM8 (Rattus norvegicus, UniProt Q8R455) (assay: Confirmation test of inhibitory effects on icilin-induced wet-dog shakes). Conditions: dose 3 mg/kg orally, icilin 1 mg/kg i.p. after 1 hour, shakes counted for 5 minutes.
Chain of TRPM8 (Q8R455 whole entry): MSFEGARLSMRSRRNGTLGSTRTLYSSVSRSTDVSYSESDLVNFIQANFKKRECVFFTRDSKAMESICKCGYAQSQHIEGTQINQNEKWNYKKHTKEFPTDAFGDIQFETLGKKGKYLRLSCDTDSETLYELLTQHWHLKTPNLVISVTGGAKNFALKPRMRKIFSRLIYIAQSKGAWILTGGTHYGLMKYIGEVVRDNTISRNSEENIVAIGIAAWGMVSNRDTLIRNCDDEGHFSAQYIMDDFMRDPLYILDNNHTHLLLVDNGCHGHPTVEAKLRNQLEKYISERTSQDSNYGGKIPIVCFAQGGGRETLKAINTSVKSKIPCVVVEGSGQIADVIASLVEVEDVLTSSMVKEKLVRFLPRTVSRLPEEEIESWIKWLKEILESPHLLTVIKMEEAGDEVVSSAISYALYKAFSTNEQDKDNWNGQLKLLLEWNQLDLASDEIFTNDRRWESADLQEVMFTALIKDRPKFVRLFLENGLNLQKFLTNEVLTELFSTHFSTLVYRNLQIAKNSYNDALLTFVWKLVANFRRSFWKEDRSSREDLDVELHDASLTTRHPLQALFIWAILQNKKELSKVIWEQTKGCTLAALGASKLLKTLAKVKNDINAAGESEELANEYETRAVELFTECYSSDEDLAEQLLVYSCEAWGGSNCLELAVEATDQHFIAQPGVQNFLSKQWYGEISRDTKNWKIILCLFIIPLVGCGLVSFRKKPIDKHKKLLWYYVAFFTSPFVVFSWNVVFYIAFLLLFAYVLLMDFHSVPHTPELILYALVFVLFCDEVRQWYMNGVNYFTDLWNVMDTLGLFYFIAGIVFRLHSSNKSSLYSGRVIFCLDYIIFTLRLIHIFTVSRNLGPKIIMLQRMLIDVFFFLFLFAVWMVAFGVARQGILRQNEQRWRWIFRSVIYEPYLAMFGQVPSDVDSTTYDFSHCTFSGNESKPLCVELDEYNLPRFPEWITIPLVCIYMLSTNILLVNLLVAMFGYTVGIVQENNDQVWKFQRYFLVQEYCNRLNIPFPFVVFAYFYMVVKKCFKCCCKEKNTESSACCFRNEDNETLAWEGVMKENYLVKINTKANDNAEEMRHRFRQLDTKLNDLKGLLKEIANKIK
Assay type: in vivo, female SD rats
Parameters: test compounds were orally administered to female SD rats; from tissue; host or cells: whole animal (female SD rats), endogenous channel
Protocol: Test compounds were dissolved in dimethylacetamide (wako), and 0.5% methylcellulose solution (wako) was added to make the solution or suspension containing 5% of dimethylacetamide. At a dose of 3 or 10 mg/kg/5 mL of test compounds were orally administered to female SD rats. After 1 hour, wet-dog shakes were induced by the intrapenitoneal injection of icilin (1 mg/kg) which was dissolved in polyethylene glycol 400 (wako). From 5 minutes after the administration of icilin, wet-dog shakes were counted for 5 minutes. For control example, vehicle (a mixture of dimethylacetamide (wako): 0.5% methylcellulose (wako)=5:95) was administrated similarly, and the number of wet-dog shakes was counted in the same manner. A percent inhibition of wet-dog shakes by test compound was calculated from the following formula: [1-(test compound wet-dog shake count/vehicle wet-dog shake count)]×100.

Question: Which “% inhibition of Wet-Dog Shake” value does the source give for `CSc1ncccc1C(=O)N([C@@H]1CCc2ccc(Cl)cc21)[C@@H](C(N)=O)c1ccccc1` [Example 2-125LP, N-[(R)-carbamoylphenylmethyl]-N-[(R)-6-chloroindan-1-yl]-2-(methylsulfanyl)nicotinamide] here?
Answer: 37%

Question: `NC(=O)[C@@H](c1cccnc1)N(C(=O)c1ccccc1Cl)[C@@H]1CCc2c(F)cc(Cl)cc21` [Example 2-97LP, N-[(R)-carbamoylpyridin-3-ylmethyl]-2-chloro-N-[(R)-6-chloro-4-fluoroindan-1-yl]benzamide] was tested. Which “% inhibition of Wet-Dog Shake” value did it give?
Answer: 35%

Question: `Cc1cnoc1C(=O)N([C@@H]1CCc2c(F)cc(Cl)cc21)[C@@H](C(N)=O)c1ccccc1` [Example 2-150LP, N-[(R)-carbamoylphenylmethyl]-N-[(R)-6-chloro-4-fluoroindan-1-yl]-4-methylisoxazole-5-carboxamide] was tested. Which “% inhibition of Wet-Dog Shake” value did it give?
Answer: 49%

Question: With `Cc1cnccc1C(=O)N([C@@H]1CCc2c(F)cc(Cl)cc21)[C@@H](C(N)=O)c1ccccc1` [Example 2-167LP, N-[(R)-carbamoylphenylmethyl]-N-[(R)-6-chloro-4-fluoroindan-1-yl]-3-methylisonicotinamide] as the compound, how does the “% inhibition of Wet-Dog Shake” value read?
Answer: 64%

Question: Which “% inhibition of Wet-Dog Shake” value does the source give for `Cc1ccncc1C(=O)N([C@@H]1CCc2c(F)cc(Cl)cc21)[C@@H](C(N)=O)c1ccccc1` [Example 2-100LP, N-[(R)-carbamoylphenylmethyl]-N-[(R)-6-chloro-4-fluoroindan-1-yl]-4-methylnicotinamide] here?
Answer: 47%

Question: `Cn1nccc1C(=O)N([C@@H]1CCc2c(F)cc(Cl)cc21)[C@@H](C(N)=O)c1ccccc1` [Example 2-133LP, N-[(R)-carbamoylphenylmethyl]-N-[(R)-6-chloro-4-fluoroindan-1-yl]-2-methyl-2H-pyrazole-3-carboxamide] was tested. Which “% inhibition of Wet-Dog Shake” value did it give?
Answer: 55%

Question: With `NC(=O)[C@@H](c1ccccc1)N(C(=O)c1cccnc1Cl)[C@@H]1CCc2c(F)cc(Cl)cc21` [Example 2-93LP, N-[(R)-carbamoylphenylmethyl]-2-chloro-N-[(R)-6-chloro-4-fluoroindan-1-yl]nicotinamide] as the compound, how does the “% inhibition of Wet-Dog Shake” value read?
Answer: 100%

Question: With `NC(=O)[C@@H](c1ccccc1)N(C(=O)c1cnccn1)[C@@H]1CCc2c(F)cc(Cl)cc21` [Example 2-179LP, N-[(R)-carbamoylphenylmethyl]-N-[(R)-6-chloro-4-fluoroindan-1-yl]pyrazine-2-carboxamide] as the compound, how does the “% inhibition of Wet-Dog Shake” value read?
Answer: 32%

Question: With `CSc1ncccc1C(=O)N([C@@H]1CCc2c(F)cc(Cl)cc21)[C@@H](C(N)=O)c1ccccc1` [Example 2-128LP, N-[(R)-carbamoylphenylmethyl]-N-[(R)-6-chloro-4-fluoroindan-1-yl]-2-(methylsulfanyl)nicotinamide] as the compound, how does the “% inhibition of Wet-Dog Shake” value read?
Answer: 65%

Question: For `NC(=O)[C@@H](c1cccnc1)N(C(=O)c1ccccc1O)[C@@H]1CCc2c(F)cc(Cl)cc21` [Example 4-5, N-[(R)-carbamoylpyridin-3-ylmethyl]-N-[(R)-6-chloro-4-fluoroindan-1-yl]-2-hydroxybenzamide], which “% inhibition of Wet-Dog Shake” value is on record?
Answer: 76%

Question: Which “% inhibition of Wet-Dog Shake” value does the source give for `Cc1ncsc1C(=O)N([C@@H]1CCc2c(F)cc(F)cc21)[C@@H](C(N)=O)c1ccccc1` [Example 2-132LP, N-[(R)-carbamoylphenylmethyl]-N-[(R)-4,6-difluoroindan-1-yl]-4-methylthiazole-5-carboxamide] here?
Answer: 49%

Question: With `NC(=O)[C@@H](c1cccnc1)N(C(=O)c1cccc2c1OCO2)[C@@H]1CCc2c(F)cc(Cl)cc21` [Example 2-172LP, N-[(R)-carbamoylpyridin-3-ylmethyl]-N-[(R)-6-chloro-4-fluoroindan-1-yl]benzo[1,3]dioxole-4-carboxamide] as the compound, how does the “% inhibition of Wet-Dog Shake” value read?
Answer: 43%

Same assay, conditions: dose 10 mg/kg orally, icilin 1 mg/kg i.p. after 1 hour, shakes counted for 5 minutes

Question: Which “% inhibition of Wet-Dog Shake” value does the source give for `NC(=O)[C@@H](c1ccccc1)N(C(=O)c1ccccc1)[C@@H]1CCc2ccc(C3CC3)cc21` [Example 2-5LP, N-[(R)-carbamoylphenylmethyl]-N-[(R)-6-cyclopropylindan-1-yl]benzamide] here?
Answer: 89%

Question: `CN(C)c1cccc([C@H](C(N)=O)N(C(=O)c2ccccc2O)[C@@H]2CCc3c(F)cc(Cl)cc32)c1` [Example 19-6LP, N-[(R)-carbamoyl-(3-dimethylaminophenyl)methyl]-N-[(R)-6-chloro-4-fluoroindan-1-yl]-2-hydroxybenzamide] was tested. Which “% inhibition of Wet-Dog Shake” value did it give?
Answer: 99%

Question: How did the “% inhibition of Wet-Dog Shake” value turn out when `NC(=O)[C@@H](c1cccc(N)c1)N(C(=O)c1ccccc1O)[C@@H]1CCc2c(F)cc(Cl)cc21` [Example 21-2, N-[(R)-(3-Aminophenyl)carbamoylmethyl]-N-[(R)-6-chloro-4-fluoroindan-1-yl]-2-hydroxybenzamide] was run?
Answer: 94%

Question: How did the “% inhibition of Wet-Dog Shake” value turn out when `NC(=O)[C@@H](c1ccccc1)N(C(=O)c1cncs1)[C@@H]1CCc2ccc(Cl)cc21` [Example 2-71LP, N-[(R)-carbamoylphenylmethyl]-N-[(R)-6-chloroindan-1-yl]thiazole-5-carboxamide] was run?
Answer: 83%

Question: Which “% inhibition of Wet-Dog Shake” value does the source give for `COc1cc(F)c2c(c1)[C@H](N(C(=O)c1cccnc1)[C@@H](C(N)=O)c1ccccc1)CC2` [Example 2-39LP, N-[(R)-carbamoylphenylmethyl]-N-[(R)-4-fluoro-6-methoxyindan-1-yl]nicotinamide] here?
Answer: 98%

Question: How did the “% inhibition of Wet-Dog Shake” value turn out when `N#Cc1ccc2c(c1)[C@H](N(C(=O)c1ccccc1O)[C@@H](C(N)=O)c1ccccc1)CC2` [Example 3-2, N-[(R)-carbamoylphenylmethyl]-N-[(R)-6-cyanoindan-1-yl]-2-hydroxybenzamide] was run?
Answer: 73%

Question: `NC(=O)[C@@H](c1cccnc1)N(C(=O)c1ccccc1)[C@@H]1CCc2c(F)cc(F)cc21` [Example 2-76LP, N-[(R)-carbamoylpyridin-3-ylmethyl]-N-[(R)-4,6-difluoroindan-1-yl]benzamide] was tested. Which “% inhibition of Wet-Dog Shake” value did it give?
Answer: 95%

Question: Which “% inhibition of Wet-Dog Shake” value does the source give for `COc1ccc2c(c1)[C@H](N(C(=O)c1cccnc1)[C@@H](C(N)=O)c1ccccc1)CC2` [Example 1-6, N-[(R)-Carbamoylphenylmethyl]-N-[(R)-6-methoxyindan-1-yl]nicotinamide] here?
Answer: 64%

Question: For `NC(=O)[C@@H](c1ccccc1)N(C(=O)c1cccnc1)[C@@H]1CCc2ccc(OC(F)F)cc21` [Example 2-26LP, N-[(R)-carbamoylphenylmethyl]-N-[(R)-6-difluoromethoxyindan-1-yl]nicotinamide], which “% inhibition of Wet-Dog Shake” value is on record?
Answer: 83%

Question: Which “% inhibition of Wet-Dog Shake” value does the source give for `Cc1ccc(C(=O)N([C@@H]2CCc3c(F)cc(Cl)cc32)[C@@H](C(N)=O)c2cccnc2)c(O)c1` [Example 19-12LP, N-[(R)-carbamoylpyridin-3-ylmethyl]-N-[(R)-6-chloro-4-fluoroindan-1-yl]-2-hydroxy-4-methylbenzamide] here?
Answer: 82%
